According to PubChem BioAssay (NCI):
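Grown in 96-well plates, cells were treated for 48 hours with each compound at five concentrations. Insufficient inhibition: endpoint recorded as highest concentration tested. GI50: concentration for 50% inhibition of growth. TGI: concentration producing complete growth inhibition.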

Assays:
Assay in all cases: NCI-60 cell line screen, 48 h
SF-268 CNS = test system: SF-268 CNS
KM12 colon = test system: KM12 colon
786-0 renal = test system: 786-0 renal
OVCAR-8 ovarian = test system: OVCAR-8 ovarian
OVCAR-5 ovarian = test system: OVCAR-5 ovarian
SF-539 CNS = test system: SF-539 CNS
K-562 leukemia = test system: K-562 leukemia
HT29 colon = test system: HT29 colon
UO-31 renal = test system: UO-31 renal
UACC-257 melanoma = test system: UACC-257 melanoma
MDA-MB-231 breast = test system: MDA-MB-231 breast
NCI/ADR-RES ovarian = test system: NCI/ADR-RES ovarian
M14 melanoma = test system: M14 melanoma
MCF7 breast = test system: MCF7 breast
A498 renal = test system: A498 renal
TK-10 renal = test system: TK-10 renal
SN12C renal = test system: SN12C renal
SNB-19 CNS = test system: SNB-19 CNS
NCI-H460 lung = test system: NCI-H460 lung
SNB-75 CNS = test system: SNB-75 CNS
HCC-2998 colon = test system: HCC-2998 colon
UACC-62 melanoma = test system: UACC-62 melanoma
SK-MEL-2 melanoma = test system: SK-MEL-2 melanoma
T-47D breast = test system: T-47D breast
NCI-H226 lung = test system: NCI-H226 lung
HL-60(TB) leukemia = test system: HL-60(TB) leukemia
NCI-H23 lung = test system: NCI-H23 lung
COLO 205 colon = test system: COLO 205 colon
SF-295 CNS = test system: SF-295 CNS
SW-620 colon = test system: SW-620 colon
PC-3 prostate = test system: PC-3 prostate
SK-MEL-28 melanoma = test system: SK-MEL-28 melanoma
RPMI-8226 leukemia = test system: RPMI-8226 leukemia
HCT-116 colon = test system: HCT-116 colon
SR leukemia = test system: SR leukemia
DU-145 prostate = test system: DU-145 prostate
A549 NSCLC = test system: A549 NSCLC
HOP-62 NSCLC = test system: HOP-62 NSCLC
CCRF-CEM leukemia = test system: CCRF-CEM leukemia
IGROV1 ovarian = test system: IGROV1 ovarian
OVCAR-3 ovarian = test system: OVCAR-3 ovarian
CAKI-1 renal = test system: CAKI-1 renal
ACHN renal = test system: ACHN renal
NCI-H522 lung = test system: NCI-H522 lung
MALME-3M melanoma = test system: MALME-3M melanoma
MDA-MB-435 = test system: MDA-MB-435
HOP-92 NSCLC = test system: HOP-92 NSCLC
SK-MEL-5 melanoma = test system: SK-MEL-5 melanoma
HS 578T breast = test system: HS 578T breast
SK-OV-3 ovarian = test system: SK-OV-3 ovarian
OVCAR-4 ovarian = test system: OVCAR-4 ovarian
BT-549 breast = test system: BT-549 breast
MOLT-4 leukemia = test system: MOLT-4 leukemia
HCT-15 colon = test system: HCT-15 colon
LOX IMVI melanoma = test system: LOX IMVI melanoma
RXF 393 renal = test system: RXF 393 renal
U251 CNS = test system: U251 CNS

C[C@]12CC[C@@H]3c4ccc(O)cc4CC[C@H]3[C@@H]1CC[C@@H]2NS(=O)(=O)c1cccc(OC(F)(F)F)c1
GI50 (SF-268 CNS): 3.18 µM
TGI (SF-268 CNS): 13.6 µM
GI50 (KM12 colon): 2.01 µM
TGI (KM12 colon): 4.08 µM
GI50 (786-0 renal): 1.92 µM
TGI (786-0 renal): 3.93 µM
GI50 (OVCAR-8 ovarian): 2.78 µM
TGI (OVCAR-8 ovarian): 9.06 µM
GI50 (OVCAR-5 ovarian): 1.73 µM
TGI (OVCAR-5 ovarian): 3.2 µM
GI50 (SF-539 CNS): 1.69 µM
TGI (SF-539 CNS): 3.09 µM
GI50 (K-562 leukemia): 3.35 µM
TGI (K-562 leukemia): 10.8 µM
GI50 (HT29 colon): 2.14 µM
TGI (HT29 colon): 3.94 µM
GI50 (UO-31 renal): 1.83 µM
TGI (UO-31 renal): 5.46 µM
GI50 (UACC-257 melanoma): 2.16 µM
TGI (UACC-257 melanoma): 6.5 µM
GI50 (MDA-MB-231 breast): 1.71 µM
TGI (MDA-MB-231 breast): 3.86 µM
GI50 (NCI/ADR-RES ovarian): 2.59 µM
TGI (NCI/ADR-RES ovarian): 7.7 µM
GI50 (M14 melanoma): 2.2 µM
TGI (M14 melanoma): 4.89 µM
GI50 (MCF7 breast): 1.47 µM
TGI (MCF7 breast): 3.36 µM
GI50 (A498 renal): 1.23 µM
TGI (A498 renal): 2.79 µM
GI50 (TK-10 renal): 3.45 µM
TGI (TK-10 renal): 10.1 µM
GI50 (SN12C renal): 1.65 µM
TGI (SN12C renal): 3.26 µM
GI50 (SNB-19 CNS): 3.46 µM
TGI (SNB-19 CNS): 16.1 µM
GI50 (NCI-H460 lung): 1.89 µM
TGI (NCI-H460 lung): 3.71 µM
GI50 (SNB-75 CNS): 1.67 µM
TGI (SNB-75 CNS): 4.32 µM
GI50 (HCC-2998 colon): 3.16 µM
TGI (HCC-2998 colon): 9.37 µM
GI50 (UACC-62 melanoma): 2.04 µM
TGI (UACC-62 melanoma): 4.7 µM
GI50 (SK-MEL-2 melanoma): 2.18 µM
TGI (SK-MEL-2 melanoma): 4.39 µM
GI50 (T-47D breast): 2.14 µM
TGI (T-47D breast): 5.18 µM
GI50 (NCI-H226 lung): 1.69 µM
TGI (NCI-H226 lung): 3.29 µM
GI50 (HL-60(TB) leukemia): 2.18 µM
TGI (HL-60(TB) leukemia): 7.04 µM
GI50 (NCI-H23 lung): 2.08 µM
TGI (NCI-H23 lung): 4.87 µM
GI50 (COLO 205 colon): 1.86 µM
TGI (COLO 205 colon): 3.3 µM
GI50 (SF-295 CNS): 1.58 µM
TGI (SF-295 CNS): 3 µM
GI50 (SW-620 colon): 3.34 µM
TGI (SW-620 colon): 12.6 µM
GI50 (PC-3 prostate): 2.13 µM
TGI (PC-3 prostate): 8.18 µM
GI50 (SK-MEL-28 melanoma): 1.76 µM
TGI (SK-MEL-28 melanoma): 3.23 µM
GI50 (RPMI-8226 leukemia): 2.38 µM
TGI (RPMI-8226 leukemia): 6.4 µM
GI50 (HCT-116 colon): 1.84 µM
TGI (HCT-116 colon): 3.53 µM
GI50 (SR leukemia): 3.37 µM
TGI (SR leukemia): 9.92 µM
GI50 (DU-145 prostate): 3.83 µM
TGI (DU-145 prostate): 12.1 µM
GI50 (A549 NSCLC): 2.7 µM
TGI (A549 NSCLC): 8.24 µM
GI50 (HOP-62 NSCLC): 1.99 µM
TGI (HOP-62 NSCLC): 3.59 µM
GI50 (CCRF-CEM leukemia): 3.16 µM
TGI (CCRF-CEM leukemia): 12.3 µM
GI50 (IGROV1 ovarian): 3.44 µM
TGI (IGROV1 ovarian): 9.19 µM
GI50 (OVCAR-3 ovarian): 2.04 µM
TGI (OVCAR-3 ovarian): 3.99 µM
GI50 (CAKI-1 renal): 2.11 µM
TGI (CAKI-1 renal): 5.97 µM
GI50 (ACHN renal): 2.45 µM
TGI (ACHN renal): 6.7 µM
GI50 (NCI-H522 lung): 2.23 µM
TGI (NCI-H522 lung): 5.42 µM
GI50 (MALME-3M melanoma): 1.99 µM
TGI (MALME-3M melanoma): 4.67 µM
GI50 (MDA-MB-435): 1.64 µM
TGI (MDA-MB-435): 3.02 µM
GI50 (HOP-92 NSCLC): 1.44 µM
TGI (HOP-92 NSCLC): 3.95 µM
GI50 (SK-MEL-5 melanoma): 1.7 µM
TGI (SK-MEL-5 melanoma): 3.32 µM
GI50 (HS 578T breast): 2.62 µM
TGI (HS 578T breast): 10.5 µM
GI50 (SK-OV-3 ovarian): 3.1 µM
TGI (SK-OV-3 ovarian): 7.68 µM
GI50 (OVCAR-4 ovarian): 1.85 µM
TGI (OVCAR-4 ovarian): 4.69 µM
GI50 (BT-549 breast): 1.97 µM
TGI (BT-549 breast): 3.66 µM
GI50 (MOLT-4 leukemia): 2.63 µM
TGI (MOLT-4 leukemia): 12.1 µM
GI50 (HCT-15 colon): 1.65 µM
TGI (HCT-15 colon): 3.76 µM
GI50 (LOX IMVI melanoma): 1.77 µM
TGI (LOX IMVI melanoma): 3.17 µM
GI50 (RXF 393 renal): 1.64 µM
TGI (RXF 393 renal): 3.6 µM
GI50 (U251 CNS): 2.54 µM
TGI (U251 CNS): 6.94 µM
